Tests used:
[1] = biological target: T1, hα7-wt nAChR (Homo sapiens, UniProt P36544); assay: Ca2+ flux imaging (FDSS): potentiation of the choline response; format: cell-based; conditions: Ca2+ assay as described in D.1; potentiation of choline response, hα7-wt nAChR; read-out: Potency (pEC50) (converted)
Method: • a) Assay Buffer • Hanks buffered saline solution (HBSS, Invitrogen, Belgium), supplemented with 10 mM HEPES (Invitrogen, Belgium), CaCl2 to a final concentration of 5 mM, 0.1% Bovine serum albumin (Sigma-Aldrich NV, Belgium). • b) Calcium-Sensitive Dye—Fluo-4AM • Fluo-4AM (Molecular Probes, USA) was dissolved in DMSO containing 10% Pluronic acid (Molecular Probes, USA) to give a stock solution which was diluted in assay buffer supplemented with 5 mM probenicid (Sigma, Aldrich NV, Belgium) to give a final concentration of 2 μM. • c) 384-Well Plates • Black 384 well plate black/clear plates, PDL pre-coated (Corning, Incorporated, USA) • d) Calcium Flux Measurement • A Functional drug screening system (FDSS, Hamamatsu) was used to measure intracellular free-calcium flux signals. Method
Monolayers of hα7-wt nAChR-expressing cells were grown in multi-well plates, in particular black-sided, transparent bottomed 384 well plates coated with poly-D-lysine for 24 hours prior to loading with a fluorescent calcium indicator, in a particular embodiment loading with fluo-4AM for up to 120 minutes.
PAM activity was detected in real time by applying the compounds to be tested to the loaded cells along with a α7 nicotinic receptor agonist during constant monitoring of cellular fluorescence in a FDSS. Compounds giving peak fluorescent responses greater than the response due to agonist alone, were considered to be α7 nAChR PAM's. In a particular embodiment, the α7 nicotinic receptor agonist was choline, a more particular embodiment choline applied at a sub-maximal concentration of 100 μM. In a further setting of the present invention the compounds to be tested were applied prior to the α7 nicotinic receptor agonist, in a particular embodiment up to 10 minutes prior to the agonist.
A control response to choline was calculated on each plate from the difference in peak in fluorescence in wells receiving either choline or assay buffer alone. Compounds of the present invention were tested at a concentration range from 0.01 μM to 30 μM. Compounds were considered to have an interesting activity when they potentiated the choline signal at least with 200% when tested at a concentration of 30 μM (the efficacy of 100 μM choline was defined as 100% in the absence of a PAM). An EC50 (or pEC50) was determined as a concentration relating to half the maximal effect, when a clear sigmoidal curve with top plateau was obtained.

[2] = biological target: T1, hα7-wt nAChR; assay: Patch-clamp current recording (whole-cell voltage clamp), potentiation of choline current and PAM type; format: cell-based; parameters: key: Type 0 compounds minimally enhance the effect size of the current elicited by 1 mM choline.; Type 1 compounds enhance the effect size of the current elicited by 1 mM choline but minimally alter the kinetics of the receptor.; Type 2 compounds enhance the effect size of the current elicited by 1 mM choline while reducing the rate and/or the extent of desensitization.; Type 3 compounds enhance the effect size of the current elicited by 1 mM choline. When tested at higher concentrations up to 10 μM they completely inhibit desensitization, in particular a 1 mM choline application of 250 milliseconds.; Type 4 compounds allow for an initial desensitization of the receptor followed by a re-opening of the receptor during agonist application; conditions: hα7-wt nAChR-expressing GH4C1 cells, 1 mM choline
Method: The compounds of the present invention are classified as type 0-4, based on qualitative kinetic properties, as determined by whole-cell voltage-clamp recordings. This classification is based on the effect of an α7 PAM compound, as described hereinbefore, on the signal elicited by an agonist application. In particular, said agonist is choline at a concentration of 1 mM. In a preferred experimental setting, said α7 PAM compound and choline are simultaneously applied to the cell, as described hereinafter. Desensitization is defined as the closure of the receptor upon activation during the application of the agonist in whole-cell voltage-clamp electrophysiology measurements seen as the reduction of the […] current after initial activation by the agonist.
The definition of the PAM types 0-4 is described hereinafter: • Type 0 compounds minimally enhance the effect size of the current elicited by 1 mM choline. • Type 1 compounds enhance the effect size of the current elicited by 1 mM choline but minimally alter the kinetics of the receptor. In particular, the rate and the extent of desensitization, elicited by the agonist, is not affected. The compound-modulated response to 1 mM choline, therefore, is a close to linear scaling of the 1 mM choline response in absence of the α7 PAM compound. • Type 2 compounds enhance the effect size of the current elicited by 1 mM choline while reducing the rate and/or the extent of desensitization. • Type 3 compounds enhance the effect size of the current elicited by 1 mM choline. […] At low-potency concentrations of the α7 PAM compound, the agonist-induced activation, which is followed by desensitization, can still be separated from the compound-induced re-opening as an initial inward current-maximum. At higher potency concentrations of the α7 PAM compound, the re-opening occurs faster than the closure due to desensitization so that the initial current-maximum disappears.
A compound was considered to have interesting PAM-like activity when the potentiation of the peak current was at least 200% compared to the control choline response (=100%). Such compounds are classified as belonging to a particular PAM type in the Experimental Part. Compounds not meeting the condition are not classified as belonging to a particular PAM-type.
The compounds also have a potentiating effect on the response to choline when measured by whole-cell patch clamp electrophysiology in GH4C1 cells stably over-expressing the human wild-type α7 receptor.
Patch-clamp recording from mammalian cells has provided a powerful means of assessing the function of membrane-bound proteins thought to be subunits of ligand-gated ion channels. Activation of such proteins by endogenous or exogenous ligands cause opening of a pore associated with the receptor through which ions flow down their electrochemical gradient. In the case of the hα7-wt nAChR-expressing GH4C1 recombinant cell line the preferential permeability to calcium of this receptor means that calcium flows into the cell upon activation by ACh, choline and other nicotinic ligands giving rise to a calcium current. Since this receptor rapidly desensitizes in the presence of agonist it is important an application system is used which is capable of very rapid switching of solutions (<100 ms) to prevent partial or full desensitisation of receptor responses coincident with the time of agonist application. Consequently, a second convenient technique to assess the enhancement of nicotinic efficacy is patch-clamp recording from hα7-wt nAChR-expressing GH4C1 cells coupled with a rapid-application system.
• a) Assay Buffers • The external recording solution consisted of 152 mM NaCl, 5 mM KCl, 1 mM MgCl2, 1 mM Calcium, 10 mM HEPES; pH 7.3. […]

T1 sequence (P36544 23-502): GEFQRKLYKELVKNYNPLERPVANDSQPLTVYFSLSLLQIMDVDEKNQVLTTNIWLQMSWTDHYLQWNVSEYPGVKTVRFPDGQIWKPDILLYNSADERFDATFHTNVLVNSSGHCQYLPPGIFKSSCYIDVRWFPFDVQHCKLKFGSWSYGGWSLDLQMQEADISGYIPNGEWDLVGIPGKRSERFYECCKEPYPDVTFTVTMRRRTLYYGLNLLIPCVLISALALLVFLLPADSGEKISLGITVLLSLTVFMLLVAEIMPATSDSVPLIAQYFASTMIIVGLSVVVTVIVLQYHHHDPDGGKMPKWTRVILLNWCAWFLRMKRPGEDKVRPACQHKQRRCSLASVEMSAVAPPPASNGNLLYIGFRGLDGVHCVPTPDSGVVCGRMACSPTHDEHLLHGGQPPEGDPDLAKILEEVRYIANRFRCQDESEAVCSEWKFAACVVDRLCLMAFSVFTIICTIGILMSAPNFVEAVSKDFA

EC50 [1] [µM] | melting point [°C] | SMILES | PAM type [2]
0.692 | 230.3 | Cc1cc(-n2nc(Nc3ccc(F)c(F)c3)cc2CC(=O)NCC2CC2)ccn1 [Compound 29, N-(cyclopropylmethyl)-3-[(3,4-difluorophenyl)amino]-1-(2-methyl-4-pyridinyl)-1H-pyrazole-5-acetamide] | 2
1.15 | 171 | Cc1cc(-n2nc(Nc3ccc(F)c(F)c3)cc2COCc2ccccc2)ccn1 [Compound 31, N-(3,4-difluorophenyl)-1-(2-methyl-4-pyridinyl)-5-[(phenylmethoxy)methyl]-1H-pyrazol-3-amine] | 0
2.29 | 169.5 | CC[C@H](O)Cc1cc(Nc2cccc(C(F)(F)F)c2)nn1-c1ccnc(C)c1 [Compound 37, (alphaS)-alpha-ethyl-1-(2-methyl-4-pyridinyl)-3-[[3-(trifluoromethyl)phenyl]amino]-1H-pyrazole-5-ethanol] | 2
1.32 | 129 | CC[C@H](O)Cc1cc(Nc2ccc(OC)c(C(F)(F)F)c2)nn1-c1ccnc(C)c1 [Compound 38, (alphaS)-alpha-ethyl-3-[[4-methoxy-3-(trifluoromethyl)phenyl]amino]-1-(2-methyl-4-pyridinyl)-1H-pyrazole-5-ethanol] | 2
0.562 | 237.9 | CNC(=O)Cc1cc(Nc2cc(OC)cc(C(F)(F)F)c2)nn1-c1ccnc(C)c1 [Compound 43, 3-[[3-methoxy-5-(trifluoromethyl)phenyl]amino]-N-methyl-1-(2-methyl-4-pyridinyl)-1H-pyrazole-5-acetamide] | 4
0.219 | 207.5 | Cc1cc(-n2nc(Nc3cccc(C(F)(F)F)c3)cc2CC(=O)NCC2CC2)ccn1 [Compound 47, N-(cyclopropylmethyl)-1-(2-methyl-4-pyridinyl)-3-[[3-(trifluoromethyl)phenyl]amino]-1H-pyrazole-5-acetamide] | 4
0.0794 | 249.2 | COc1cc(Nc2cc(CC(=O)NC3CCC3)n(-c3ccnc(C)c3)n2)cc(C(F)(F)F)c1 [Compound 48, N-cyclobutyl-3-[[3-methoxy-5-(trifluoromethyl)phenyl]amino]-1-(2-methyl-4-pyridinyl)-1H-pyrazole-5-acetamide] | 4
2.24 | 149.3 | CC[C@H](O)Cc1cc(Nc2cccc(Cl)c2)nn1-c1ccnc(C)c1 [Compound 57, (alphaS)-3-[(3-chlorophenyl)amino]-alpha-ethyl-1-(2-methyl-4-pyridinyl)-1H-pyrazole-5-ethanol] | 2

The next lines start with the compound.

SMILES | EC50 [1] [µM] | melting point [°C] | PAM type [2]
CC[C@@H](O)Cc1cc(Nc2cccc(C(F)(F)F)c2)nn1-c1ccnc(C)c1 [Compound 35, (alphaR)-alpha-ethyl-1-(2-methyl-4-pyridinyl)-3-[[3-(trifluoromethyl)phenyl]amino]-1H-pyrazole-5-ethanol] | 0.692 | 170 | 2
CC[C@H](O)Cc1cc(Nc2cc(OC)cc(C(F)(F)F)c2)nn1-c1ccnc(C)c1 [Compound 39, (alphaS)-alpha-ethyl-3-[[3-methoxy-5-(trifluoromethyl)phenyl]amino]-1-(2-methyl-4-pyridinyl)-1H-pyrazole-5-ethanol] | 0.933 | 129.2 | 4
CCNC(=O)Cc1cc(Nc2cccc(C(F)(F)F)c2)nn1-c1ccnc(C)c1 [Compound 44, N-ethyl-1-(2-methyl-4-pyridinyl)-3-[[3-(trifluoromethyl)phenyl]amino]-1H-pyrazole-5-acetamide] | 0.603 | 228.9 | 2
CCNC(=O)Cc1cc(Nc2cc(OC)cc(C(F)(F)F)c2)nn1-c1ccnc(C)c1 [Compound 45, N-ethyl-3-[[3-methoxy-5-(trifluoromethyl)phenyl]amino]-1-(2-methyl-4-pyridinyl)-1H-pyrazole-5-acetamide] | 0.2 | 248.6 | 4
COc1cc(Nc2cc(CC(=O)NC3CC3)n(-c3ccnc(C)c3)n2)cc(C(F)(F)F)c1 [Compound 46, N-cyclopropyl-3-[[3-methoxy-5-(trifluoromethyl)phenyl]amino]-1-(2-methyl-4-pyridinyl)-1H-pyrazole-5-acetamide] | 0.234 | 251.3 | 4
CC[C@H](O)Cc1cc(Nc2cccc(Cl)c2F)nn1-c1ccnc(C)c1 [Compound 58, (alphaS)-3-[(3-chloro-2-fluorophenyl)amino]-alpha-ethyl-1-(2-methyl-4-pyridinyl)-1H-pyrazole-5-ethanol] | 2.51 | 168.2 | 1
CC[C@H](O)Cc1cc(Nc2cc(Cl)cc(OC)c2)nn1-c1ccnc(C)c1 [Compound 61, (alphaS)-3-[(3-chloro-5-methoxyphenyl)amino]-alpha-ethyl-1-(2-methyl-4-pyridinyl)-1H-pyrazole-5-ethanol] | 0.794 | 125.3 | 2
CNC(=O)Cc1cc(Nc2cccc(Cl)c2F)nn1-c1ccnc(C)c1 [Compound 71, 3-[(3-chloro-2-fluorophenyl)amino]-N-methyl-1-(2-methyl-4-pyridinyl)-1H-pyrazole-5-acetamide] | 2.24 | 229.7 | 2
CNC(=O)Cc1cc(Nc2cc(Cl)cc(OC)c2)nn1-c1ccnc(C)c1 [Compound 72, 3-[(3-chloro-5-methoxyphenyl)amino]-N-methyl-1-(2-methyl-4-pyridinyl)-1H-pyrazole-5-acetamide] | 1.82 | 215 | 3

From patent US8791144B2, “Substituted N-phenyl-1-(4-Pyridinyl)-1H-pyrazol-3-amines” (Janssen Pharmaceutica NV, priority 2009, dated 2014)
